Data as given in the NIST ThermoML archive (doi:10.1021/je200721d).
Numbers after ± are expanded uncertainties.

Assay: xn = mol fraction of the nth substance listed
Settings: Liquid, Vibrating tube method

CCCCCCCC [octane] + CCCCCC
Settings	mass density [kg/m3]
342.94 K, 22000 kPa, x2 = 0.2199	677.76 ± 0.45
342.94 K, 23000 kPa, x2 = 0.2199	678.64 ± 0.46
342.94 K, 24000 kPa, x2 = 0.2199	679.49 ± 0.47
342.94 K, 25000 kPa, x2 = 0.2199	680.34 ± 0.48
342.98 K, 1000 kPa, x2 = 0.9308	619.48 ± 0.28
342.98 K, 2000 kPa, x2 = 0.9308	620.92 ± 0.29
342.98 K, 3000 kPa, x2 = 0.9308	622.34 ± 0.3
342.98 K, 4000 kPa, x2 = 0.9308	623.76 ± 0.31
342.98 K, 5000 kPa, x2 = 0.9308	625.17 ± 0.32
342.98 K, 6000 kPa, x2 = 0.9308	626.56 ± 0.33
342.98 K, 7000 kPa, x2 = 0.9308	627.93 ± 0.34
342.98 K, 8000 kPa, x2 = 0.9308	629.29 ± 0.35
342.98 K, 9000 kPa, x2 = 0.9308	630.63 ± 0.36
342.98 K, 10000 kPa, x2 = 0.9308	631.94 ± 0.37
342.98 K, 11000 kPa, x2 = 0.9308	633.24 ± 0.38
342.98 K, 12000 kPa, x2 = 0.9308	634.53 ± 0.39
342.98 K, 13000 kPa, x2 = 0.9308	635.77 ± 0.4
342.98 K, 14000 kPa, x2 = 0.9308	637.01 ± 0.41
342.98 K, 15000 kPa, x2 = 0.9308	638.23 ± 0.42
342.98 K, 16000 kPa, x2 = 0.9308	639.42 ± 0.43
342.98 K, 17000 kPa, x2 = 0.9308	640.57 ± 0.44
342.98 K, 18000 kPa, x2 = 0.9308	641.7 ± 0.45
342.98 K, 19000 kPa, x2 = 0.9308	642.81 ± 0.46
342.98 K, 20000 kPa, x2 = 0.9308	643.91 ± 0.47
342.98 K, 21000 kPa, x2 = 0.9308	644.95 ± 0.48
342.98 K, 22000 kPa, x2 = 0.9308	645.97 ± 0.49
342.98 K, 23000 kPa, x2 = 0.9308	646.98 ± 0.5
342.98 K, 24000 kPa, x2 = 0.9308	647.95 ± 0.52
342.98 K, 25000 kPa, x2 = 0.9308	648.91 ± 0.53
342.99 K, 1000 kPa, x2 = 0.1654	657.36 ± 0.27
342.99 K, 2000 kPa, x2 = 0.1654	658.52 ± 0.27
342.99 K, 3000 kPa, x2 = 0.1654	659.68 ± 0.28
342.99 K, 4000 kPa, x2 = 0.1654	660.84 ± 0.29
342.99 K, 5000 kPa, x2 = 0.1654	662.01 ± 0.3
342.99 K, 6000 kPa, x2 = 0.1654	663.15 ± 0.3
342.99 K, 7000 kPa, x2 = 0.1654	664.27 ± 0.31
342.99 K, 8000 kPa, x2 = 0.1654	665.4 ± 0.32
342.99 K, 9000 kPa, x2 = 0.1654	666.53 ± 0.33
342.99 K, 10000 kPa, x2 = 0.1654	667.62 ± 0.34
342.99 K, 11000 kPa, x2 = 0.1654	668.73 ± 0.35
342.99 K, 12000 kPa, x2 = 0.1654	669.8 ± 0.36
342.99 K, 13000 kPa, x2 = 0.1654	670.86 ± 0.37
342.99 K, 14000 kPa, x2 = 0.1654	671.91 ± 0.38
342.99 K, 15000 kPa, x2 = 0.1654	672.94 ± 0.38
342.99 K, 16000 kPa, x2 = 0.1654	673.96 ± 0.39
342.99 K, 17000 kPa, x2 = 0.1654	674.95 ± 0.4
342.99 K, 18000 kPa, x2 = 0.1654	675.92 ± 0.41
